Like-named read-outs stand apart in the source and are kept apart here.
Key:
Spodoptera littoralis [1] = test: Activity against Spodoptera littoralis (Example B8); type: in vivo; details: 72 h, young soya plants sprayed, 400 ppm active ingredient, 1st instar caterpillars, 3 days, read-out: percentage reduction in the population and in the feeding damage (% activity)
Description: (§1) Young soya plants are sprayed with an aqueous emulsion spray mixture comprising 400 ppm of active ingredient and, after the spray coating has dried on, populated with 10 caterpillars (1st instar) of Spodoptera littoralis and introduced into a plastic container. 3 days later, the percentage reduction in the population and in the feeding damage (% activity) are determined by comparing the number of dead caterpillars and the feeding damage between the treated and untreated plants.

Plutella xylostella = test: Activity against Plutella xylostella (Example B7); type: in vivo; details: 72 h, young cabbage plants sprayed, 400 ppm active ingredient, 3rd instar caterpillars, 3 days, read-out: percentage reduction in the population and in the feeding damage (% activity)
Description: as §1, with “cabbage” for “soya”, “(3rd” for “(1st”, “Plutella xylostella” for “Spodoptera littoralis”

Spodoptera littoralis [2] = test: Systemic insecticide test for Spodoptera littoralis (cotton leafworm) (Example B9); type: in vivo; details: 96 h, read-out: percentage of dead (activity)
Description: Four day old maize seedlings (Zea mays, variety Stoneville) are placed individual in vials containing 24 ml water into which the chemical is diluted at 12.5 ppm. Seedlings are allowed to grow for six days. Subsequently leaves are cut and placed in a Petri dish (5 cm diameter), inoculated with twelve to fifteen 1st instar S. littoralis larvae and incubated for four days in a growth chamber (25° C., 50% r.h., 18:6 L:D photo period). Number of alive insects are counted and percentage of dead calculated. Tests were conducted with one replicate. In this test, compounds listed in the Tables above show good activity. In particular compounds T1.1.17, T1.1.89, T41.1.1, T35.1.1, T40.1.1, T30.1.1, T44.1.1, T31.1.1, T31.1.2, T30.1.2, T1.1.17, T1.1.89, T16.1.1, T36.1.1, T16.1.1, T3.7.1, T18.1.1, T43.1.1, T42.1.1, T30.1.2, T30.1.1, T40.1.1, T41.1.1, T45.1.1, T35.1.1, T1.1.73, T18.1.1, T36.1.1, T1.1.1 and T1.1.73 have an activity of over 80%.

Diabrotica balteata = test: Activity against Diabrotica balteata (Example B2); type: in vivo; details: 144 h, maize seedlings sprayed, 400 ppm active ingredient, 2nd instar larvae, 6 days, read-out: percentage reduction in the population (% activity)
Description: Maize seedlings are sprayed with an aqueous emulsion spray mixture comprising 400 ppm of active ingredient and, after the spray coating has dried on, populated with 10 larvae (2nd instar) of Diabrotica balteata and introduced into a plastic container. 6 days later, the percentage reduction in the population (% activity) is determined by comparing the number of dead larvae between the treated and untreated plants.

Heliothis virescens = test: Activity against Heliothis virescens, foliar application (Example B3); type: in vivo; details: 144 h, young soya plants sprayed, 400 ppm active ingredient, 1st instar caterpillars, 6 days, read-out: percentage reduction in the population and in the feeding damage (% activity)
Description: as §1, with “Heliothis virescens” for “Spodoptera littoralis”, “6” for “3”

Myzus persicae = test: Activity against Myzus persicae, foliar application (Example B5); type: in vivo; details: pea seedlings sprayed, 400 ppm active ingredient, 20°, 3 and 6 days, read-out: percentage reduction in the population (% activity)
Description: Pea seedlings are infected with Myzus persicae, subsequently sprayed with a spray mixture comprising 400 ppm of active ingredient and then incubated at 20°. 3 and 6 days later, the percentage reduction in the population (% activity) is determined by comparing the number of dead aphids between the treated and untreated plants.

## CCS(=N)(=O)CCNC(=O)c1cc(Cl)cc(C)c1NC(=O)c1cc(C(F)(F)F)nn1-c1ncccc1Cl (stereo not shown) [T30.1.2]
Spodoptera littoralis [1]
  inhibition at 400 ppm: > 80%
Plutella xylostella
  inhibition at 400 ppm: > 80%
Spodoptera littoralis [2]; in Zea mays
  pest or weed control at 12.5 ppm: > 80%

## Cc1cc(Cl)cc(C(=O)NC(C)(C)CS(C)(=N)=O)c1NC(=O)c1cc(OCC(F)(F)F)nn1-c1ncccc1Cl (stereo not shown) [T1.1.17]
Spodoptera littoralis [1]
  inhibition at 400 ppm: > 80%
Diabrotica balteata
  inhibition at 400 ppm: > 80%
Plutella xylostella
  inhibition at 400 ppm: > 80%
Spodoptera littoralis [2]; in Zea mays
  pest or weed control at 12.5 ppm: > 80%

## Cc1cc(Cl)cc(C(=O)NCCOCCS(C)(=O)=NC(=O)C(F)(F)F)c1NC(=O)c1cc(C(F)(F)F)nn1-c1ncccc1Cl (stereo not shown) [T45.1.1]
Plutella xylostella
  inhibition at 400 ppm: > 80%
Spodoptera littoralis [2]; in Zea mays
  pest or weed control at 12.5 ppm: > 80%

## Cc1cc(Cl)cc(C(=O)NC(C)CS(C)(=N)=O)c1NC(=O)c1cc(C(F)(F)F)nn1-c1ncccc1Cl (stereo not shown) [T16.1.1]
Heliothis virescens
  inhibition at 400 ppm: > 80%
Spodoptera littoralis [1]
  inhibition at 400 ppm: > 80%
Diabrotica balteata
  inhibition at 400 ppm: > 80%
Plutella xylostella
  inhibition at 400 ppm: > 80%
Spodoptera littoralis [2]; in Zea mays
  pest or weed control at 12.5 ppm: > 80%

## Cc1cc(Cl)cc(C(=O)NC(C)(C)CS(C)(=N)=O)c1NC(=O)c1cc(C(F)(F)F)nn1-c1ncccc1Cl (stereo not shown) [T1.1.1]
Heliothis virescens
  inhibition at 400 ppm: > 80%
Myzus persicae
  inhibition at 400 ppm: > 80%
Spodoptera littoralis [1]
  inhibition at 400 ppm: > 80%
Diabrotica balteata
  inhibition at 400 ppm: > 80%
Plutella xylostella
  inhibition at 400 ppm: > 80%
Spodoptera littoralis [2]; in Zea mays
  pest or weed control at 12.5 ppm: > 80%

## Cc1cc(Cl)cc(C(=O)NCC(C)(C)CS(C)(=N)=O)c1NC(=O)c1cc(C(F)(F)F)nn1-c1ncccc1Cl (stereo not shown) [T42.1.1]
Spodoptera littoralis [1]
  inhibition at 400 ppm: > 80%
Plutella xylostella
  inhibition at 400 ppm: > 80%
Spodoptera littoralis [2]; in Zea mays
  pest or weed control at 12.5 ppm: > 80%

## CCS(=O)(CCNC(=O)c1cc(Cl)cc(C)c1NC(=O)c1cc(C(F)(F)F)nn1-c1ncccc1Cl)=NC(=O)C(F)(F)F (stereo not shown) [T31.1.2]
Spodoptera littoralis [1]
  inhibition at 400 ppm: > 80%
Plutella xylostella
  inhibition at 400 ppm: > 80%
Spodoptera littoralis [2]; in Zea mays
  pest or weed control at 12.5 ppm: > 80%

## Cc1cc(Cl)cc(C(=O)NCC(C)(C)CS(C)(=O)=NC(=O)C(F)(F)F)c1NC(=O)c1cc(C(F)(F)F)nn1-c1ncccc1Cl (stereo not shown) [T43.1.1]
Spodoptera littoralis [1]
  inhibition at 400 ppm: > 80%
Plutella xylostella
  inhibition at 400 ppm: > 80%
Spodoptera littoralis [2]; in Zea mays
  pest or weed control at 12.5 ppm: > 80%

## Cc1cc(Cl)cc(C(=O)NC(CS(C)(=N)=O)C(C)C)c1NC(=O)c1cc(C(F)(F)F)nn1-c1ncccc1Cl (stereo not shown)
other
  melting point: 248 to 250 °C

## Cc1cc(Cl)cc(C(=O)NCC(C)S(C)(=N)=O)c1NC(=O)c1cc(C(F)(F)F)nn1-c1ncccc1Cl (stereo not shown) [T36.1.1]
Spodoptera littoralis [1]
  inhibition at 400 ppm: > 80%
Plutella xylostella
  inhibition at 400 ppm: > 80%
Spodoptera littoralis [2]; in Zea mays
  pest or weed control at 12.5 ppm: > 80%

## CCCCC(CS(C)(=N)=O)NC(=O)c1cc(Cl)cc(C)c1NC(=O)c1cc(C(F)(F)F)nn1-c1ncccc1Cl (stereo not shown)
other
  melting point: 225 to 226 °C

## Cc1cc(C#N)cc(C(=O)NC(C)(C)CS(C)(=N)=O)c1NC(=O)c1cc(C(F)(F)F)nn1-c1ncccc1Cl (stereo not shown) [T1.1.73]
Spodoptera littoralis [1]
  inhibition at 400 ppm: > 80%
Diabrotica balteata
  inhibition at 400 ppm: > 80%
Plutella xylostella
  inhibition at 400 ppm: > 80%
Spodoptera littoralis [2]; in Zea mays
  pest or weed control at 12.5 ppm: > 80%

## Cc1cc(C#N)cc(C(=O)NC2(CS(C)(=O)=NC(=O)C(F)(F)F)CC2)c1NC(=O)c1cc(C(F)(F)F)nn1-c1ncccc1Cl (stereo not shown)
other
  melting point: 187 to 189 °C

## CCC(CS(C)(=N)=O)NC(=O)c1cc(Cl)cc(C)c1NC(=O)c1cc(C(F)(F)F)nn1-c1ncccc1Cl (stereo not shown) [T38.1.1]
other
  melting point: 180 to 185 °C
Plutella xylostella
  inhibition at 400 ppm: > 80%

## Cc1cc(Cl)cc(C(=O)NCc2ccccc2S(C)(=O)=NC(=O)C(F)(F)F)c1NC(=O)c1cc(C(F)(F)F)nn1-c1ncccc1Cl (stereo not shown) [T35.1.1]
Heliothis virescens
  inhibition at 400 ppm: > 80%
Spodoptera littoralis [1]
  inhibition at 400 ppm: > 80%
Plutella xylostella
  inhibition at 400 ppm: > 80%
Spodoptera littoralis [2]; maize seedlings in water with 12.5 ppm, 6 days growth, cut leaves, 1st instar larvae, 4 days, one replicate
  pest or weed control at 12.5 ppm: > 80%

## Cc1cc(C#N)cc(C(=O)NC(C)(C)CS(C)(=N)=O)c1NC(=O)c1cc(OCC(F)(F)F)nn1-c1ncccc1Cl (stereo not shown) [T1.1.89]
Spodoptera littoralis [1]
  inhibition at 400 ppm: > 80%
Diabrotica balteata
  inhibition at 400 ppm: > 80%
Plutella xylostella
  inhibition at 400 ppm: > 80%
Spodoptera littoralis [2]; in Zea mays
  pest or weed control at 12.5 ppm: > 80%

## COC(=O)C(CCS(C)(=N)=O)NC(=O)c1cc(Cl)cc(C)c1NC(=O)c1cc(C(F)(F)F)nn1-c1ncccc1Cl (stereo not shown)
other
  melting point: 207 to 209 °C

## Cc1cc(Cl)cc(C(=O)NCCCCS(C)(=O)=NC(=O)C(F)(F)F)c1NC(=O)c1cc(C(F)(F)F)nn1-c1ncccc1Cl (stereo not shown) [T41.1.1]
Spodoptera littoralis [1]
  inhibition at 400 ppm: > 80%
Plutella xylostella
  inhibition at 400 ppm: > 80%
Spodoptera littoralis [2]; in Zea mays
  pest or weed control at 12.5 ppm: > 80%

## CCC(CS(C)(=O)=NC(=O)C(F)(F)F)NC(=O)c1cc(Cl)cc(C)c1NC(=O)c1cc(C(F)(F)F)nn1-c1ncccc1Cl (stereo not shown) [T39.1.1]
other
  melting point: 170 to 174 °C
Plutella xylostella
  inhibition at 400 ppm: > 80%

## Cc1cc(Cl)cc(C(=O)NCCCCCCS(C)(=O)=NC(=O)C(F)(F)F)c1NC(=O)c1cc(C(F)(F)F)nn1-c1ncccc1Cl (stereo not shown) [T47.1.1]
other
  melting point: 110 to 113 °C
Spodoptera littoralis [1]
  inhibition at 400 ppm: > 80%
Plutella xylostella
  inhibition at 400 ppm: > 80%

## Cc1cc(Cl)cc(C(=O)NC(C)CS(C)(=O)=NC(=O)C(F)(F)F)c1NC(=O)c1cc(C(F)(F)F)nn1-c1ncccc1Cl (stereo not shown) [T18.1.1]
Spodoptera littoralis [1]
  inhibition at 400 ppm: > 80%
Diabrotica balteata
  inhibition at 400 ppm: > 80%
Plutella xylostella
  inhibition at 400 ppm: > 80%
Spodoptera littoralis [2]; in Zea mays
  pest or weed control at 12.5 ppm: > 80%

## Cc1cc(Cl)cc(C(=O)NCC(C)S(C)(=O)=NC(=O)C(F)(F)F)c1NC(=O)c1cc(C(F)(F)F)nn1-c1ncccc1Cl (stereo not shown)
other
  melting point: 125 to 130 °C

## Cc1cc(Cl)cc(C(=O)NCCCCS(C)(=N)=O)c1NC(=O)c1cc(C(F)(F)F)nn1-c1ncccc1Cl (stereo not shown) [T40.1.1]
Spodoptera littoralis [1]
  inhibition at 400 ppm: > 80%
Plutella xylostella
  inhibition at 400 ppm: > 80%
Spodoptera littoralis [2]; in Zea mays
  pest or weed control at 12.5 ppm: > 80%

## Cc1cc(Cl)cc(C(=O)NCCS(C)(=N)=O)c1NC(=O)c1cc(C(F)(F)F)nn1-c1ncccc1Cl (stereo not shown) [T30.1.1]
Spodoptera littoralis [1]
  inhibition at 400 ppm: > 80%
Plutella xylostella
  inhibition at 400 ppm: > 80%
Spodoptera littoralis [2]; in Zea mays
  pest or weed control at 12.5 ppm: > 80%

## Cc1cc(Cl)cc(C(=O)NC(C)(C)CS(C)(=O)=NC(=O)C(F)(F)F)c1NC(=O)c1cc(C(F)(F)F)nn1-c1ncccc1Cl (stereo not shown) [T3.1.1]
Heliothis virescens
  inhibition at 400 ppm: > 80%
other
  melting point: 112 to 115 °C
Myzus persicae
  inhibition at 400 ppm: > 80%
Spodoptera littoralis [1]
  inhibition at 400 ppm: > 80%
Diabrotica balteata
  inhibition at 400 ppm: > 80%
Plutella xylostella
  inhibition at 400 ppm: > 80%

## Cc1cc(Cl)cc(C(=O)NCCCCCCS(C)(=N)=O)c1NC(=O)c1cc(C(F)(F)F)nn1-c1ncccc1Cl (stereo not shown) [T46.1.1]
Heliothis virescens
  inhibition at 400 ppm: > 80%
other
  melting point: 148 to 152 °C
Spodoptera littoralis [1]
  inhibition at 400 ppm: > 80%
Plutella xylostella
  inhibition at 400 ppm: > 80%

## Cc1cc(Cl)cc(C(=O)NCCOCCS(C)(=N)=O)c1NC(=O)c1cc(C(F)(F)F)nn1-c1ncccc1Cl (stereo not shown) [T44.1.1]
Spodoptera littoralis [1]
  inhibition at 400 ppm: > 80%
Plutella xylostella
  inhibition at 400 ppm: > 80%
Spodoptera littoralis [2]; in Zea mays
  pest or weed control at 12.5 ppm: > 80%

## Cc1cc(Cl)cc(C(=O)NCCS(C)(=O)=NC(=O)C(F)(F)F)c1NC(=O)c1cc(C(F)(F)F)nn1-c1ncccc1Cl (stereo not shown) [T31.1.1]
Spodoptera littoralis [1]
  inhibition at 400 ppm: > 80%
Plutella xylostella
  inhibition at 400 ppm: > 80%
Spodoptera littoralis [2]; in Zea mays
  pest or weed control at 12.5 ppm: > 80%

## Cc1cc(Cl)cc(C(=O)NCc2ccccc2S(C)(=N)=O)c1NC(=O)c1cc(C(F)(F)F)nn1-c1ncccc1Cl (stereo not shown) [T34.1.1]
other
  melting point: 235 to 238 °C
Spodoptera littoralis [1]
  inhibition at 400 ppm: > 80%
Plutella xylostella
  inhibition at 400 ppm: > 80%
